US20250115578A1, “AROMATIC FUSED RING NAV1.8 INHIBITOR, AND USE THEREOF” (CHENGDU KANGHONG PHARMACEUTICAL CO., LTD., priority 2022, published 2025)
In brackets after ≈: the same amount, converted by molar mass.

What was measured:
[1] = system: postoperative pain model in rats; test: Efficacy test in postoperative pain model in rats (mechanical allodynia, PWT); assay type: in vivo, Sprague-Dawley male rats; conditions: single oral 30 mg/kg; for Inhibition of mechanical hyperalgesia induced by postoperative pain model: at 1 h, 2 h and 4 h after administration
Method: Sprague-Dawley male rats, purchased from Zhejiang Vital River Laboratory Animal Technology Co., LTD
Compounds of the example 10, 14, 16, 31 of the invention were weighted and prepared into solutions of 3 mg/mL using 5% DMSO (Anhui Senrise Technologies Co., Ltd)+30% Solutol HS15 (Beijing Ouhe Technology Co., LTD.)+65% water for injection, and administered at a volume of 10 mL/kg by gavage. The dosage was 30 mg/kg.
Animals were anesthetized with Zoletil 50+ Xylazine Hydrochloride (20 mg/kg+8 mg/kg, intraperitoneally injected). The surgical area on the plantar skin of the left hind paw was disinfected three times with iodophor and 70% ethanol, and the surgery was started after the skin was dry.
A longitudinal incision about 1 cm was made towards the toes starting from 0.5 cm away from the heel of the left hind paw. After the skin was incised, the flexor digitorum brevis was raised and longitudinal blunt injury was caused. After hemostasis by pressing, the wound was sutured. After surgery, animals were placed on an electric warm pad and 5 mL of physiological saline was injected subcutaneously to prevent dehydration. 24 h after modeling, all animals (including the normal control group) were tested for base mechanical allodynia (PWT). The modeling animals without mechanical hypersensitivity (PWT greater than 5 g) were excluded and […] were selected and randomly divided into 5 groups, with 9 animals in each group except 5 in the normal group (negative control group).
The animals were weighed and administered orally at a volume of 10 mL/kg. Except normal control animals, other animals were given a single dose of compounds, and mechanical allodynia was performed by test fibers on all groups of animals at 1 h, 2 h and 4 h after dosing. The rats were placed individually in a plexiglass box with a grid at the bottom to ensure that the paws of the rats could be tested. The rats would acclimate for 15 minutes before the test. After the acclimation was completed, the test fibers were used to test on the plantar center of the rat's left hind paw. Pressed the test fiber vertically against the skin and applied force to bend the fiber for 6 to 8 seconds, with 5 second intervals between each test. The rapid withdrawal of the animal's paws during the test was recorded as a pain response. The animal's paw withdrawal when the fibers left the animal's skin was also recorded as a pain response. If the animal moves or walks around, it's not recorded as a pain response, and the test should be repeated.
Mechanical hyperalgesia was expressed as the paw withdrawal threshold (PWT) in the rat behavioral test, which was calculated according to the following formula:
50% response threshold (g)=(10^(Xf+kδ)/10,000 • Xf=final test fiber value used in the test • k=table value (Chaplan et al. 1994, page 62) • δ=mean deviation
Data were collected with excel software and analyzed with Prism 7.0 (Graph pad software, Inc.) software by two-way ANOVA followed by Dunnett multiple comparison test.

[2] = Assay of kinetic solubility; assay type: physicochemical; conditions: aqueous buffer, kinetic from dmso stock, pH 3.5 phosphate buffer, 25° C.

Row | SMILES | Efficacy compared with example compound 31 ([1]; after 1 h of administration) | Inhibition of mechanical hyperalgesia induced by postoperative pain model [1] | solubility kinetic at 2 h [2] [µM] | Efficacy compared with example compound 31 ([1]; at 1 h and 4 h after administration)
1 | NS(=O)(=O)c1cccc(NC(=O)c2cc3cc(F)c(F)cc3nc2N2CCCC(F)(F)CC2)c1 [Example 16, 2-(4,4-difluoroazepan-1-yl)-6,7-difluoro-N-(3-sulfamoylphenyl) quinoline-3-carboxamide] | significantly more effective than example compound 31 | inhibited mechanical hyperalgesia |  | 
2 | NS(=O)(=O)c1cc(NC(=O)c2cc3ccccc3nc2N2CCCC(F)(F)CC2)ccn1 [Example 14, 2-(4,4-difluoroazepan-1-yl)-N-(2-sulfamoylpyridine-4-yl) quinoline-3-carboxamide] |  | inhibited mechanical hyperalgesia | 271 (≈ 125 µg/mL) | significantly stronger than that of example compound 31
3 | NC(=O)c1cc(NC(=O)c2cc3ccccc3nc2N2CCCC(F)(F)CC2)ccn1 [Example 08, N-(2-carbamoylpyridin-4-yl)-2-(4,4-difluoroazepan-1-yl)quinoline-3-carboxamide] |  |  | 175 (≈ 74.5 µg/mL) | 
4 | NC(=O)c1cc(NC(=O)c2nc3ccccc3nc2N2CCCC(F)(F)CC2)ccc1F [Example 02, N-(3-carbamoyl-4-fluorophenyl)-3-(4,4-difluoroazepan-1-yl)quinoxaline-2-carboxamide] |  |  | 2.8 (≈ 1.24 µg/mL) | 
5 | NC(=O)c1cc(NC(=O)c2cc3cc(F)c(F)cc3nc2N2CCCC(F)(F)CC2)ccn1 [Example 10, N-(2-carbamoylpyridin-4-yl)-2-(4,4-difluoroazepan-1-yl)-6,7-difluoroquinoline-3-carboxamide] |  | inhibited mechanical hyperalgesia |  | 
6 | NC(=O)c1cc(NC(=O)c2nc3ccccc3nc2N2CCCC(F)(F)CC2)ccn1 [Example 05, N-(2-carbamoylpyridin-4-yl)-3-(4,4-difluoroazepan-1-yl)quinoxaline-2-carboxamide] |  |  | 0.39 (≈ 0.166 µg/mL) | 
